Test results taken from patent US20250170127A1, “RE-SENSITIZING MULTIDRUG-RESISTANT (MDR) GRAM-NEGATIVE BACTERIA TO COLISTIN USING IONOPHORES” (The Regents of the University of Colorado, a body corporate, priority 2022, published 2025).
Values joined by “and” are separate entries in the source; they are usually repeats but may differ in a detail not shown here. Equal entries are not always repeated.

Assays:
P. aeruginosa AR-0768 = test: Colistin MIC in the absence or presence of RMA compound; type: cell-based
Source text: (§1) To investigate the scope of the colistin-potentiation effect of compound 3, the present inventors screened a panel of MDR Gram-negative bacteria obtained from the CDC and FDA Antibiotic Resistance Bank. These include a variety of Enterobacteriaceae spp., such as E. coli AR-0346 and AR-0538, K. pneumoniae AR-0497, Salmonella Enteritidis AR-0496, and Salmonella Typhimurium AR-0635. These strains all express the mcr genes (e.g., mcr-1, mcr-2, and mcr-4) and are resistant to colistin with its MICs of 8-16 μg/mL (Table 2). […] The only exception is Salmonella Typhimurium AR-0635, which expresses mcr-4 gene. […]. […]. Furthermore, the present inventors also tested the activity of colistin in the presence or absence of 1 μg/mL compound 3 in a wild-type E. coli K-12. […] The MICs of compound 3 in all these strains were >64 μg/mL, the highest concentration tested.

E. coli AR-0493 [1] = test: Checkerboard broth microdilution assay with colistin; type: cell-based
Experimental: FIG. 2. […] AR-0493. Data represent the mean OD (600 nm) in two biological replicates.
To further confirm the synergistic effect of compound 3 and colistin, the checkerboard broth microdilution assay was performed (FIG. 2).
(§2) General Methods. MDR strains E. coli AR-0493, AR-0346, and AR-0538, Salmonella Enteritidis AR-0496, Salmonella Typhimurium AR-0635, K. pneumoniae AR-0497, A. baumannii AR-0300 and AR-0310 were all obtained from the CDC & FDA Antibiotic Resistance Isolate Bank. E. coli K-12 was a gift from the Copley lab (Department of MCD Biology, University of Colorado Boulder). HeLa cells were purchased from the ATCC. All bacterial strains were grown on trypticase soy agar supplemented with 5% sheep blood (BAP). Bacteria were then cultured in Luria-Bertani (LB) medium at 35° C. until they achieve the log phase before screening or antimicrobial testing using CAMHB media. MIC, MRC, and checkerboard analyses and mammalian growth inhibition analyses in Hela cells were performed as described previously. More details are given in Supporting information.

E. coli AR-0493 [2] = test: MIC, CLSI broth microdilution, substance alone; type: cell-based; conditions: Escherichia coli, AR0493, read-out: MIC
Experimental: A MDR E. coli strain AR-0493 (a.k.a., ATCC BAA-3170) was obtained from the CDC and FDA Antibiotic Resistance Bank and used for the initial screen. […] Considering the difficulties on the discovery of novel antimicrobial reagents against Gram-negative bacteria, we chose to screen the fragment-based library of 3,200 compounds from TimTec (Tampa, FL). […] The screen used a modified broth microdilution assay.
These 10 compounds were tested for their MICs and minimum re-sensitizing concentrations (MRCs) in the presence colistin at 2 μg/mL in E. coli AR-0493. […] To evaluate their toxicity in mammalian cells, the present inventors treated human epithelial adenocarcinoma HeLa cells with each compound at a wide range of concentrations. […]
as §2

[3] = tested on: Salmonella Enteritidis AR-0496; test: Colistin MIC in the absence or presence of RMA compound; type: cell-based; conditions: Salmonella Enteritidis AR-0496
Source text: as §1, §2

E. coli K-12 = test: as above; type: cell-based; conditions: in the presence of 1 μg/mL of compound 3; E. coli K-12
Source text: as §1, §2

E. coli AR-0346 = test: as above; type: cell-based; conditions: E. coli AR-0346
Source text: as §1, §2

A. baumannii AR-0300 = test: as above; type: cell-based
Source text: as §1, §2

HeLa cells = test: in vitro; type: cell-based, human; conditions: GI50 in HeLa / MRC in AR-0493
Experimental: (§3) These 10 compounds were tested for their MICs and minimum re-sensitizing concentrations (MRCs) in the presence colistin at 2 μg/mL in E. coli AR-0493. […] To evaluate their toxicity in mammalian cells, the present inventors treated human epithelial adenocarcinoma HeLa cells with each compound at a wide range of concentrations.
(§4) To evaluate the mammalian toxicity of these analogs, Applicants tested them in cell viability assay using human cervical adenocarcinoma HeLa cells. Their respective half maximal growth inhibition concentration (GI50) was calculated using KaleidaGraph. The selectivity index (SI) for each compound was also calculated as the ratio of their GI50 and MRC. […] Therefore, Applicants selected two bisanilino analogs, 7l and 7m, that bear chlorines at the meta- and para-positions, respectively, of the phenyl groups for further characterization studies. […]. […] Their mammalian toxicities were also evaluated, and SIs calculated. […] Applicants we next explored the scope of analogs 71 and 7m their colistin-potentiating activity in 8 different MDR Gram negative bacteria with diverse genetic backgrounds and resistance mechanisms (Table 7). All strains were obtained from CDC and FDA Antibiotic Resistance Bank. For example, E. coli AR-0493 and K. pneumoniae AR-0497 carry the plasmid that contains the most prevalent mcr-1 gene. E. coli AR-0538, Salmonella Typhimurium AR-0539 and AR-0635 contain the mcr-2, 3, and 4 genes, respectively. These genes encode the phosphoethanolamine transferase, which was originated form the chromosome of A. baumannii, such as AR-0310. […]. A. baumannii AR-0310 appears more sensitive to these two compounds and the MICs of colistin was reduced to 0.25 μg/mL.
as §2

in vitro = type: cell-based, human; conditions: human
Experimental: as §3, §4, §2

K. pneumoniae AR-0497 = test: Colistin MIC in the absence or presence of RMA compound; type: cell-based; conditions: K. pneumoniae AR-0497
Source text: as §1, §4, §2

E. coli AR-0538 = test: as above; type: cell-based; conditions: E. coli AR-0538
Source text: as §1, §4, §2

E. coli AR-0493 [4] = test: as above; type: cell-based; conditions: E. coli AR-0493
Source text: as §1, §4, §2

A. baumannii AR-0310 = test: as above; type: cell-based
Source text: as §1, §4, §2

[5] = tested on: Salmonella Typhimurium AR-0635; test: as above; type: cell-based; conditions: Salmonella Typhimurium AR-0635
Source text: as §1, §4, §2

E. coli AR-0493 [6] = test: Minimum re-sensitizing concentration (MRC) in the presence of colistin; type: cell-based; conditions: in AR-0493
Experimental: These 10 compounds were tested for their MICs and minimum re-sensitizing concentrations (MRCs) in the presence colistin at 2 μg/mL in E. coli AR-0493.
The present inventors further conducted MRC screens of selected compounds from groups 2-5 in AR-0493. Compound were tested against AR-0493 with compound X+2 μg/mL Colistin.
All compounds were tested for their respective minimum resensitizing concentrations (MRCs) for colistin against E. coli. AR0493, a MDR strain from CDC and FDA Antibiotic Resistance Bank. […] For the symmetrical bisanilino series, 7a-p, electron-donating alkyl and alkoxy groups (entries 7a-g, Table 5) at various positions of the phenyl rings were investigated. […] Three asymmetric bisanilino analogs (7q-s, Table 5) were synthesized based on the SARs of the monoanilino analogs 8a-p (vide infra).
as §2

[7] = tested on: MDR Gram-negative bacteria; test: MICs across a panel of MDR Gram-negative bacteria (summary statements); type: cell-based
Source text: as §1, §4, §2

[8] = in the presence of 1 μg/mL of compound 3
[9] = 1 μg/mL compound 3, almost all mcr-expressing Enterobacteriaceae strains of Table 2

## Cc1cccc(Nc2nc3nonc3nc2Nc2cccc(C)c2)c1 [Compound 3]
P. aeruginosa AR-0768; 1 μg/mL of compound 3
  Folds of potentiation: 4 folds
P. aeruginosa AR-0768; [8]
  Colistin MIC (+3): 4 µg/mL
E. coli AR-0493 [1]; compound and colistin, E. coli AR-0493
  fractional inhibitory concentration index (FICI): < 0.06
E. coli AR-0493 [1]; mean OD (600 nm), FIG. 2
  potentiation of colistin in checkerboard assay: dose-dependent potentiation of colistin
E. coli AR-0493 [2]
  MIC: > 64 µg/mL
[3]; 1 μg/mL of compound 3
  Folds of potentiation: 16 folds
[3]; [8]
  Colistin MIC (+3): 1 µg/mL
E. coli K-12
  Colistin MIC (+3): 0.25 µg/mL
E. coli AR-0346; 1 μg/mL of compound 3
  Folds of potentiation: 16 folds
E. coli AR-0346; [8]
  Colistin MIC (+3): 0.5 µg/mL
A. baumannii AR-0300; 1 μg/mL of compound 3
  Folds of potentiation: 32 folds
A. baumannii AR-0300; [8]
  Colistin MIC (+3): 0.25 µg/mL
HeLa cells
  SI (Selective Index), ratio of GI50 and MRC: 30
In vitro
  GI50 at 24 h: 15 µg/mL
K. pneumoniae AR-0497; 1 μg/mL of compound 3
  Folds of potentiation: 16 folds
K. pneumoniae AR-0497; [8]
  Colistin MIC (+3): 0.5 µg/mL
E. coli AR-0538; 1 μg/mL of compound 3
  Folds of potentiation: 16 folds
E. coli AR-0538; [8]
  Colistin MIC (+3): 0.5 µg/mL
E. coli AR-0493 [4]; 1 μg/mL of compound 3
  Folds of potentiation: 16 folds
E. coli AR-0493 [4]; [8]
  Colistin MIC (+3): 1 µg/mL
A. baumannii AR-0310; 1 μg/mL of compound 3
  Folds of potentiation: 32 folds
A. baumannii AR-0310; [8]
  Colistin MIC (+3): 0.5 µg/mL
[5]; 2 μg/mL of compound 3
  Folds of potentiation: 16 folds
[5]; [8]
  Colistin MIC (+3): 4 µg/mL
[5]; in the presence of 2 μg/mL of compound 3
  Colistin MIC (+3): 1 μg/mL and 1^c μg/mL
E. coli AR-0493 [6]
  MRC: 0.5 µg/mL
[7]; [9]
  Colistin MIC (+3): 0.5 to 1 µg/mL
  folds of potentiation for colistin: 16 folds
[7]; compound alone, all strains of Table 2, highest concentration tested
  MIC: > 64 µg/mL
